Test results reported in ChEMBL document CHEMBL4265964, “Discover the leading compound of 4β-S-(5-fluorobenzoxazole)-4-deoxy-4'-demethylepipodophyllotoxin with millimolar-potency toxicity by modifying the molecule structure of 4'-demethylepipodophyllotoxin” (Eur J Med Chem, 2018).
pIC50: −log10 of the molar value. Activity calls are given as the source filed them. The calls are words filed in the database; no cut-off is given here.

Assays:
HepG2 [1] = experiment: Cytotoxicity against human HepG2 cells after 48 hrs by MTT assay; assay type: functional, cell-based; details: HepG2, 48 h
L02 [2] = experiment: Cytotoxicity against human HL7702 cells after 48 hrs by MTT assay; assay type: cell-based; details: L02, 48 h
HeLa = experiment: Cytotoxicity against human HeLa cells after 48 hrs by MTT assay; assay type: functional, cell-based
[3] = Cytotoxicity against human H8 cells after 48 hrs by MTT assay; assay type: cell-based
A549 = experiment: Cytotoxicity against human A549 cells after 48 hrs by MTT assay; assay type: functional, cell-based; details: A549, 48 h
MRC5 = experiment: Cytotoxicity against human MRC5 cells after 48 hrs by MTT assay; assay type: cell-based; details: MRC5, 48 h
MCF7 = experiment: Cytotoxicity against human MCF7 cells after 48 hrs by MTT assay; assay type: functional, cell-based; details: MCF7, 48 h
HMEC = experiment: Cytotoxicity against HMEC after 48 hrs by MTT assay; assay type: cell-based; details: Homo sapiens
Homo sapiens [4] = organism: Homo sapiens; experiment: Inhibition of human topoisomerase-2 assessed as reduction in relaxation of kinetoplast DNA at 50 uM after 30 mins by ethidium bromide staining based agarose gel electrophoresis method
Homo sapiens [5] = organism: Homo sapiens; experiment: Inhibition of human topoisomerase-2 assessed as reduction in relaxation of kinetoplast DNA at 100 uM after 30 mins by ethidium bromide staining based agarose gel electrophoresis method
Homo sapiens [6] = organism: Homo sapiens; experiment: Inhibition of human topoisomerase-2 assessed as reduction in relaxation of kinetoplast DNA at 200 uM after 30 mins by ethidium bromide staining based agarose gel electrophoresis method
HepG2 [7] = experiment: Cell cycle arrest in human HepG2 cells assessed as accumulation at G2/M phase at 1 uM after 42 hrs by propidium iodide staining based flow cytometry relative to control; assay type: functional
HepG2 [8] = experiment: Cell cycle arrest in human HepG2 cells assessed as accumulation at G2/M phase at 5 to 10 uM after 42 hrs by propidium iodide staining based flow cytometry; assay type: functional
L02 [9] = experiment: Cell cycle arrest in human HL7702 cells assessed as accumulation at G2/M phase at 5 to 10 uM after 42 hrs by propidium iodide staining based flow cytometry relative to control; details: l02, 42 h
HepG2 [10] = experiment: Induction of apoptosis in human HepG2 cells assessed as necrotic cells at 10 uM after 42 hrs by Annexin V-FITC/propidium iodide staining based flow cytometry (reference value: 0.3%); assay type: functional
HepG2 [11] = experiment: Induction of apoptosis in human HepG2 cells assessed as late apoptotic cells at 10 uM after 42 hrs by Annexin V-FITC/propidium iodide staining based flow cytometry (reference value: 0.9%); assay type: functional
HepG2 [12] = experiment: Induction of apoptosis in human HepG2 cells assessed as early apoptotic cells at 10 uM after 42 hrs by Annexin V-FITC/propidium iodide staining based flow cytometry (reference value: 0.5%); assay type: functional
HepG2 [13] = experiment: Induction of apoptosis in human HepG2 cells assessed as live cells at 10 uM after 42 hrs by Annexin V-FITC/propidium iodide staining based flow cytometry (reference value: 98.2%); assay type: functional
[14] = Induction of apoptosis in human HL7702 cells assessed as live cells at 100 uM after 42 hrs by Annexin V-FITC/propidium iodide staining based flow cytometry (reference value: 98.5%); assay type: cell-based; details: HL7702 (L02) cells, read-out: Activity
L02 [15] = experiment: Induction of apoptosis in human HL7702 cells assessed as early apoptotic cells at 100 uM after 42 hrs by Annexin V-FITC/propidium iodide staining based flow cytometry (reference value: 0.3%); assay type: cell-based; details: l02, 42 h
L02 [16] = experiment: Induction of apoptosis in human HL7702 cells assessed as late apoptotic cells at 100 uM after 42 hrs by Annexin V-FITC/propidium iodide staining based flow cytometry (reference value: 1%); assay type: cell-based; details: l02, 42 h
L02 [17] = experiment: Induction of apoptosis in human HL7702 cells assessed as necrotic cells at 100 uM after 42 hrs by Annexin V-FITC/propidium iodide staining based flow cytometry (reference value: 0.2%); assay type: cell-based; details: l02, 42 h
L02 [18] = experiment: Induction of DNA damage in human HL7702 cells assessed as gammaH2AX accumulation at 50 uM after 12 hrs by DAPI staining based immuno-fluorescence assay; assay type: cell-based; details: l02, 12 h
L02 [19] = experiment: Upregulation of HMGB1 expression in human HL7702 cells at 50 uM after 12 hrs by proteomic analysis; assay type: functional, cell-based
L02 [20] = experiment: Upregulation of PARK7 expression in human HL7702 cells at 50 uM after 12 hrs by proteomic analysis; assay type: functional, cell-based
L02 [21] = experiment: Upregulation of SRSF3 expression in human HL7702 cells at 50 uM after 12 hrs by proteomic analysis relative to control; assay type: functional, cell-based
L02 [22] = experiment: Upregulation of COX5A expression in human HL7702 cells at 50 uM after 12 hrs by proteomic analysis relative to control; assay type: functional, cell-based
L02 [23] = experiment: Upregulation of Akt expression in human HL7702 cells at 50 uM after 12 hrs by proteomic analysis relative to control; assay type: functional, cell-based

COc1cc([C@@H]2c3cc4c(cc3[C@@H](c3nc5cc(C)ccc5o3)[C@H]3COC(=O)[C@H]23)OCO4)cc(OC)c1O
pIC50 (HepG2 [1]): 4.81 | pIC50 (L02 [2]): 4.50 | pIC50 (HeLa): 4.81 | pIC50 [3]: 4.71 | pIC50 (A549): 5.10 | pIC50 (MRC5): 4.41 | pIC50 (MCF7): 4.84 | pIC50 (HMEC): 4.90

COc1cc([C@@H]2c3cc4c(cc3[C@@H](c3nc5c(F)c(F)c(F)c(F)c5o3)[C@H]3COC(=O)[C@H]23)OCO4)cc(OC)c1O
pIC50 (HepG2 [1]): 5.17 | pIC50 (L02 [2]): 4.12 | pIC50 (HeLa): 5.37 | pIC50 [3]: 4.35 | pIC50 (A549): 5.77 | pIC50 (MRC5): 4.18 | pIC50 (MCF7): 5.46 | pIC50 (HMEC): 4.12

COc1cc([C@@H]2c3cc4c(cc3[C@@H](C3CC(S)NN3c3ccccc3F)[C@H]3COC(=O)[C@H]23)OCO4)cc(OC)c1O (some centres not stated)
pIC50 (HepG2 [1]): 5.35 | pIC50 (L02 [2]): 4.14 | pIC50 (HeLa): 5.42 | pIC50 [3]: 4.19 | pIC50 (A549): 5.55 | pIC50 (MRC5): 4.05 | pIC50 (MCF7): 5.82 | pIC50 (HMEC): 4.24

COc1cc([C@@H]2c3cc4c(cc3[C@@H](c3nc5cc(C(F)(F)F)ccc5s3)[C@H]3COC(=O)[C@H]23)OCO4)cc(OC)c1O
pIC50 (HepG2 [1]): 4.71 | pIC50 (L02 [2]): 4.10 | pIC50 (HeLa): 4.68 | pIC50 [3]: 4.09 | pIC50 (A549): 5.19 | pIC50 (MRC5): 4.13 | pIC50 (MCF7): 4.46 | pIC50 (HMEC): 4.37

COc1cc([C@@H]2c3cc4c(cc3[C@@H](O[C@@H]3O[C@@H]5CO[C@@H](C)O[C@H]5[C@H](O)[C@H]3O)[C@H]3COC(=O)[C@H]23)OCO4)cc(OC)c1O [ETOPOSIDE]
inhibition (Homo sapiens [4]): inactive | inhibition (Homo sapiens [5]): Active | inhibition (Homo sapiens [6]): Active | pIC50 (HepG2 [1]): 4.70 | pIC50 (L02 [2]): 4.61 | pIC50 (HeLa): 4.67 | pIC50 [3]: 4.12 | pIC50 (A549): 4.65 | pIC50 (MRC5): 4.47 | pIC50 (MCF7): 4.27 | pIC50 (HMEC): 4.67 | Activity (HepG2 [7]): 33% | Activity (HepG2 [8]): Active | Activity (L02 [9]): 64% | Activity (HepG2 [10]): 5.4% | Activity (HepG2 [11]): 11% | Activity (HepG2 [12]): 7% | Activity (HepG2 [13]): 76.6% | viability at 42 h, 100 µM [14]: 28% | Activity (L02 [15]): 37% | Activity (L02 [16]): 32.8% | Activity (L02 [17]): 2.2% | Activity (L02 [18]): Toxic | Activity (L02 [19]): inactive | Activity (L02 [20]): inactive | Activity (L02 [21]): inactive | Activity (L02 [22]): inactive | Activity (L02 [23]): inactive

COc1cc([C@@H]2c3cc4c(cc3[C@@H](c3nc5cc(OC(F)F)ccc5[nH]3)[C@H]3COC(=O)[C@H]23)OCO4)cc(OC)c1O
pIC50 (HepG2 [1]): 5.80 | pIC50 (L02 [2]): 4.81 | pIC50 (HeLa): 5.68 | pIC50 [3]: 4.26 | pIC50 (A549): 5.89 | pIC50 (MRC5): 4.22 | pIC50 (MCF7): 5.62 | pIC50 (HMEC): 4.29

COc1cc([C@@H]2c3cc4c(cc3[C@@H](c3nc5c(F)c(F)c(F)c(F)c5s3)[C@H]3COC(=O)[C@H]23)OCO4)cc(OC)c1O
pIC50 (HepG2 [1]): 4.84 | pIC50 (L02 [2]): 4.45 | pIC50 (HeLa): 5.64 | pIC50 [3]: 4.61 | pIC50 (A549): 5.38 | pIC50 (MRC5): 4.38 | pIC50 (MCF7): 5.26 | pIC50 (HMEC): 4.74

COc1cc([C@@H]2c3cc4c(cc3[C@@H](c3nc5cc(C)ccc5s3)[C@H]3COC(=O)[C@H]23)OCO4)cc(OC)c1O
pIC50 (HepG2 [1]): 5.09 | pIC50 (L02 [2]): 4.62 | pIC50 (HeLa): 5.29 | pIC50 [3]: 4.56 | pIC50 (A549): 5.52 | pIC50 (MRC5): 4.33 | pIC50 (MCF7): 5.27 | pIC50 (HMEC): 4.81

COc1cc([C@@H]2c3cc4c(cc3[C@@H](c3nc5cc(-c6ccccc6)ccc5s3)[C@H]3COC(=O)[C@H]23)OCO4)cc(OC)c1O
pIC50 (HepG2 [1]): 4.82 | pIC50 (L02 [2]): 4.73 | pIC50 (HeLa): 4.65 | pIC50 [3]: 4.32 | pIC50 (A549): 5.24 | pIC50 (MRC5): 4.45 | pIC50 (MCF7): < 4.00 | pIC50 (HMEC): 4.27
